In ChEMBL document CHEMBL3044672, “N9- and N7-(Chloromethyl Phenymethyl)Chloropurine Derivatives from , '-Dichloroxylenes: Synthesis and Anticancer Activity” (2005):

How the values were obtained:
Format in all cases: functional
PC-3 = assay: Cytotoxicity against Homo sapiens (human) PC3 cells after 48 hr by sulforhodamine B assay; details: PC-3, 48 h
HT-29 = assay: Cytotoxicity against Homo sapiens (human) HT-29 cells after 48 hr by sulforhodamine B assay; details: HT-29, 48 h
TK-10 = assay: Cytotoxicity against Homo sapiens (human) TK10 cells after 48 hr by sulforhodamine B assay; details: TK-10, 48 h
COLO 205 = assay: Cytotoxicity against Homo sapiens (human) COLO205 cells after 48 hr by sulforhodamine B assay; details: COLO 205, 48 h
T47D = assay: Cytotoxicity against Homo sapiens (human) T47D cells after 48 hr by sulforhodamine B assay
OVCAR-5 = assay: Cytotoxicity against Homo sapiens (human) OVCAR5 cells after 48 hr by sulforhodamine B assay; details: OVCAR-5, 48 h
SW-620 = assay: Cytotoxicity against Homo sapiens (human) SW620 cells after 48 hr by sulforhodamine B assay; details: SW-620, 48 h
SK-MEL-5 = assay: Cytotoxicity against Homo sapiens (human) SK-MEL-5 cells after 48 hr by sulforhodamine B assay; details: SK-MEL-5, 48 h
HOP-62 = assay: Cytotoxicity against Homo sapiens (human) HOP62 cells after 48 hr by sulforhodamine B assay; details: HOP-62, 48 h
EKVX = assay: Cytotoxicity against Homo sapiens (human) EKVX cells after 48 hr by sulforhodamine B assay
OVCAR-3 = assay: Cytotoxicity against Homo sapiens (human) OVCAR3 cells after 48 hr by sulforhodamine B assay; details: OVCAR-3, 48 h
SNB-75 = assay: Cytotoxicity against Homo sapiens (human) SNB75 cells after 48 hr by sulforhodamine B assay; details: SNB-75, 48 h
NCI-H460 = assay: Cytotoxicity against Homo sapiens (human) NCI-H460 cells after 48 hr by sulforhodamine B assay; details: NCI-H460, 48 h
HCT-116 = assay: Cytotoxicity against Homo sapiens (human) HCT116 cells after 48 hr by sulforhodamine B assay; details: HCT-116, 48 h
SK-OV-3 = assay: Cytotoxicity against Homo sapiens (human) SKOV3 cells after 48 hr by sulforhodamine B assay; details: SK-OV-3, 48 h
HCC 2998 = assay: Cytotoxicity against Homo sapiens (human) HCC2998 cells after 48 hr by sulforhodamine B assay; details: HCC 2998, 48 h
SF-268 = assay: Cytotoxicity against Homo sapiens (human) SF268 cells assessed as cell growth at 10^-4 M after 48 hr by […] assay; details: SF-268, 48 h, read-out: Activity
SF-295 = assay: Cytotoxicity against Homo sapiens (human) SF295 cells after 48 hr by sulforhodamine B assay; details: SF-295, 48 h
MDA-MB-435 = assay: Cytotoxicity against Homo sapiens (human) MDA-MB-435 cells after 48 hr by sulforhodamine B assay; details: MDA-MB-435, 48 h
RXF 393 = assay: Cytotoxicity against Homo sapiens (human) RXF393 cells after 48 hr by sulforhodamine B assay; details: RXF 393, 48 h
SK-MEL-2 = assay: Cytotoxicity against Homo sapiens (human) SK-MEL-2 cells after 48 hr by sulforhodamine B assay; details: SK-MEL-2, 48 h
NCI-H322M = assay: Cytotoxicity against Homo sapiens (human) NCI-H322M cells after 48 hr by sulforhodamine B assay
IGROV-1 = assay: Cytotoxicity against Homo sapiens (human) IGROV1 cells after 48 hr by sulforhodamine B assay; details: IGROV-1, 48 h
RPMI-8226 = assay: Cytotoxicity against Homo sapiens (human) RPMI8226 cells after 48 hr by sulforhodamine B assay; details: RPMI-8226, 48 h
DU-145 = assay: Cytotoxicity against Homo sapiens (human) DU145 cells after 48 hr by sulforhodamine B assay; details: DU-145, 48 h
MDA-MB-231 = assay: Cytotoxicity against Homo sapiens (human) MDA-MB-231 cells after 48 hr by sulforhodamine B assay; details: MDA-MB-231, 48 h
Hs-578T = assay: Cytotoxicity against Homo sapiens (human) Hs 578T cells after 48 hr by sulforhodamine B assay
KM12 = assay: Cytotoxicity against Homo sapiens (human) KM12 cells after 48 hr by sulforhodamine B assay; details: KM12, 48 h
MOLT-4 = assay: Cytotoxicity against Homo sapiens (human) MOLT4 cells after 48 hr by sulforhodamine B assay; details: MOLT-4, 48 h
MCF7 = assay: Cytotoxicity against Homo sapiens (human) MCF7 cells after 48 hr by sulforhodamine B assay; details: MCF7, 48 h
OVCAR-4 = assay: Cytotoxicity against Homo sapiens (human) OVCAR4 cells after 48 hr by sulforhodamine B assay; details: OVCAR-4, 48 h
[1] = read-out: LC50 (the source's name)

Compound: ClCc1cccc(Cn2cnc3ncnc(Cl)c32)c1
- GI50 (PC-3): 2.13 µM
- LC50 (concentration causing 50% cell kill) (PC-3): 63.1 µM
- TGI (PC-3): 5.37 µM
- GI50 (HT-29): 2.88 µM
- TGI (HT-29): > 100 µM
- CC50 (HT-29; [1]): 6.02 µM
- GI50 (TK-10): 1.77 µM
- TGI (TK-10): 3.31 µM
- CC50 (TK-10; [1]): 6.3 µM
- GI50 (COLO 205): 2.63 µM
- TGI (COLO 205): > 100 µM
- CC50 (COLO 205; [1]): 6.3 µM
- GI50 (T47D): 0.21 µM
- LC50 (T47D): 2.88 µM
- TGI (T47D): 0.5 µM
- GI50 (OVCAR-5): 6.76 µM
- TGI (OVCAR-5): 19.9 µM
- CC50 (OVCAR-5; [1]): > 100 µM
- GI50 (SW-620): 15.1 µM
- TGI (SW-620): 32.4 µM
- CC50 (SW-620; [1]): 7.41 µM
- GI50 (SK-MEL-5): 4.67 µM
- LC50 (SK-MEL-5): 45.7 µM
- TGI (SK-MEL-5): 18.2 µM
- GI50 (HOP-62): 2.18 µM
- TGI (HOP-62): 3.98 µM
- CC50 (HOP-62; [1]): 7.41 µM
- GI50 (EKVX): 13.8 µM
- TGI (EKVX): 29.5 µM
- CC50 (EKVX; [1]): 64.6 µM
- GI50 (OVCAR-3): 1.77 µM
- LC50 (OVCAR-3): 43.6 µM
- TGI (OVCAR-3): 3.23 µM
- GI50 (SNB-75): 1.86 µM
- TGI (SNB-75): 3.54 µM
- CC50 (SNB-75; [1]): 7.94 µM
- GI50 (NCI-H460): 2.08 µM
- TGI (NCI-H460): 4.46 µM
- CC50 (NCI-H460; [1]): 91.2 µM
- GI50 (HCT-116): 1.77 µM
- TGI (HCT-116): 5.24 µM
- CC50 (HCT-116; [1]): 9.54 µM
- GI50 (SK-OV-3): 10.7 µM
- LC50 (SK-OV-3): 8.12 µM
- TGI (SK-OV-3): 25.7 µM
- GI50 (HCC 2998): 1.69 µM
- TGI (HCC 2998): 3.23 µM
- CC50 (HCC 2998; [1]): 40.7 µM
- growth at 100 µM (SF-268): 0%
- GI50 (SF-295): 6.3 µM
- TGI (SF-295): 19.1 µM
- CC50 (SF-295; [1]): 64.6 µM
- GI50 (MDA-MB-435): 3.46 µM
- LC50 (MDA-MB-435): 39.8 µM
- TGI (MDA-MB-435): 12.9 µM
- GI50 (RXF 393): 2.04 µM
- TGI (RXF 393): 17.4 µM
- CC50 (RXF 393; [1]): 47.9 µM
- GI50 (SK-MEL-2): 5.75 µM
- LC50 (concentration killing 50% of cells) (SK-MEL-2): 6.76 µM
- TGI (SK-MEL-2): 22.9 µM
- GI50 (NCI-H322M): 1.99 µM
- TGI (NCI-H322M): 3.46 µM
- CC50 (NCI-H322M; [1]): 8.54 µM
- GI50 (IGROV-1): 3.38 µM
- LC50 (IGROV-1): 5.88 µM
- TGI (IGROV-1): 13.8 µM
- GI50 (RPMI-8226): 13.8 µM
- TGI (RPMI-8226): 34.7 µM
- CC50 (RPMI-8226; [1]): 89.1 µM
- GI50 (DU-145): 15.1 µM
- TGI (DU-145): 30.9 µM
- GI50 (MDA-MB-231): 1.73 µM
- LC50 (MDA-MB-231): 6.76 µM
- TGI (MDA-MB-231): 3.38 µM
- GI50 (Hs-578T): 18.2 µM
- LC50 (Hs-578T): 97.7 µM
- TGI (Hs-578T): 42.6 µM
- GI50 (KM12): 1.86 µM
- TGI (KM12): 3.31 µM
- CC50 (KM12; [1]): 67.6 µM
- GI50 (MOLT-4): 10.7 µM
- TGI (MOLT-4): 29.5 µM
- CC50 (MOLT-4; [1]): 81.3 µM
- GI50 (MCF7): 1.58 µM
- LC50 (concentration killing 50% of cells) (MCF7): 39 µM
- TGI (MCF7): 3.98 µM
- GI50 (OVCAR-4): 4.16 µM
- LC50 (concentration killing 50% of cells) (OVCAR-4): 46.8 µM
- TGI (OVCAR-4): 15.8 µM
